Measurements published in US7081467B2, “C2-disubstituted indan-1-ones and their derivatives, processes for their preparation and their use as pharmaceuticals” (Sanofi-aventis Deutschland GmbH, priority 2001, dated 2006).

Tests used:
[1] = system: female NMRI mice; test: Anorectic action: cumulative milk consumption after 24 h feed removal; type: in vivo; settings: feed removed 24 h, dose 20 mg/kg (ip or po, route not specified)
Protocol: The anorectic action was tested on female NMRI mice. After removal of feed for 24 hours, the preparation to be tested was administered intraperitoneally (ip) or by gavage (po). The animals were housed singly and, with free access to drinking water, they were offered evaporated milk 30 minutes after administration of the preparation. The consumption of evaporated milk was determined and the general behavior of the animals was monitored every half an hour for 7 hours. The measured milk consumption was compared to that of vehicle-treated control animals.

CS(=O)(=O)C1(F)Cc2cc(Cl)ccc2C1=O (stereo not drawn) [Example 1, 5-Chloro-2-fluoro-2-methanesulfonylindan-1-one]
melting point: 150 °C | Reduction in cumulative milk consumption as % of the control ([1]; compared with vehicle-treated control animals): 48% | cumulative milk consumption by treated animals ([1]; evaporated milk offered 30 min after administration, monitored for 7 hours): 5/2.00 ml
